Source: ChEMBL document CHEMBL3112580, “A new face for old antibiotics: tetracyclines in treatment of amyloidoses” (2013)

Tests used:
[1] = species on record: Mus musculus; assay: Antiamyloidogenic activity in R6/2 mouse Huntington's disease model assessed as increase in survival rate relative to control; type: functional
[2] = species on record: Mus musculus; assay: Antiamyloidogenic activity in mouse transfected with human amylin/amyloid polypeptide assessed as increase in survival time relative to control; type: functional
[3] = species on record: Homo sapiens; assay: Antiprion activity at scrapie prion protein in human brain at 1 mM after 1 hr by Western blotting analysis; type: tissue-based
[4] = tested on: Mus musculus; assay: Antiamyloidogenic activity in CMV-lambda6 mouse harboring human lambda LC protein at 0.5 mg/ml administered in drinking water for 3 to 6 months by Congo red staining-based microscopy; type: functional

With CN(C)c1ccc(O)c2c1C[C@H]1C[C@H]3[C@H](N(C)C)C(O)=C(C(N)=O)C(=O)[C@@]3(O)C(O)=C1C2=O [MINOCYCLINE] the Survival [1] was 14%.

Work on CN(C)[C@@H]1C(O)=C(C(N)=O)C(=O)[C@@]2(O)C(O)=C3C(=O)c4c(O)cccc4[C@@](C)(O)[C@H]3C[C@@H]12 [TETRACYCLINE] yielded a Survival [2] of 254%.

With C[C@H]1c2cccc(O)c2C(=O)C2=C(O)[C@]3(O)C(=O)C(C(N)=O)=C(O)[C@@H](N(C)C)[C@@H]3[C@@H](O)[C@@H]21.O [DOXYCYCLINE] the Activity [3] was 80% and the Activity [4] was 23%.
